One block for each compound: values may come before it.
Key:
[1] = system: GABAA receptor; details: cited from earlier work; for influence on GABAA receptor: compared with phellopterin
[2] = system: GABA/BDZ receptor; parameters: method as in PMID 8971802; details: cited from earlier work
[3] = system: animal model; details: cited from earlier work; for anxiolytic activity (percentage of time and number of arms entries in the open arm): elevated plus maze
[4] = system: 5-dpf zebrafish larvae; experiment: Zebrafish larvae 40 min continuous illumination: spontaneous locomotor activity and thigmotaxis (Phase 1); type: in vivo, Danio rerio; details: for spontaneous locomotor activity (average distance moved): 40 min continuous illumination
Protocol: (§1) The research protocol was adopted after Schnorr et al. (2012). The anxiolytic activity was evaluated in 24-well plates. The inner and outer zones of the well were delineated according to Schnorr et al. (2012). […] It could be also described as decreasing thigmotaxis. 1% DMSO in E3 solution was used as the negative control, 10 μM diazepam was used as the positive control. 32 larvae were used for each concentration.
(§2) The experimental procedure was divided into three stages: • (a) Preincubation: larvae were pre-incubated in a 1500 μL solution of tested compounds in individual wells of a 24-well plate at 28.5 °C, in dark, for 30 min. • (b) Acclimatization (min 0–10): plates were placed in an automated video recording bench station (ViewPoint, Lyon, France). Larvae were allowed to acclimatize to the test apparatus for 10 min. During this period, lights were kept on. • (c) Visual motor challenge (min 11–95): this stage experiment was divided into two phases: Phase 1—continuous illumination: larvae were subjected to continuous light for 40 min, with the purpose to determine the spontaneous locomotor activity and thigmotaxis behavior (before applying the factor causing the anxiety). Phase 2—light/dark transition: larvae were subjected to three cycles, each involving the 10-min lighting phase (continuous light) and the 5-min dark phase (anxiogenic factor).

[5] = Shake-flask partition coefficient in HEMWat biphasic solvent systems; type: physicochemical
Protocol: The screening for suitable biphasic solvent systems to isolate the target coumarins from Seseli devenyense methanolic fruit extract (SDMFE) was performed by shake-flask experiments. The partition coefficient (Pi), defined as the ratio of the concentration of a solute in the stationary phase to its concentration in the mobile phase, was used as the screening parameter. The experimental protocol was previously descried by Widelski et al. (2018). Briefly, 1 mg of crude extract was dissolved in 4 mL of biphasic solvent systems obtained by mixing various volumes of hexane, ethyl acetate, methanol and water (HEMWat). After vigorous shaking, the flasks were left until the complete separation of the layers. Then, equal volumes of the upper and lower phase (0.5 mL) were taken, evaporated to dryness, dissolved again in methanol (1.0 mL) and analyzed by HPLC-DAD analysis, as descried below.
The preliminary analysis of the SDMFE, determination of the partition coefficient values and purity of collected fractions were assessed by HPLC-DAD. The HPLC-DAD analyses were performed on a Shimadzu HPLC (Shimadzu, Tokyo, Japan) equipped with automatic degasser (DGU-20A3R), quaternary pump (LC-20AD), auto-sampler (SIL-20AHT) and diode array detector (SPD-M20A). The separations were carried out on an Agilent Zorbax Eclipse XDB-C18 (Agilent, Santa Clara, CA, USA) (250 mm × 4.6 mm, 5 μm) column with a mobile phase consisting of water (solvent A) and methanol (solvent B). The following gradient was applied: 0 min: 50% B; 5 min: 60% B; 25 min: 80% B; 30–35 min: 100% B. The flow-rate was 1 mL/min; the column temperature was set at 25 °C. The injection volume of sample was 10 μL and detection was carried out at 320 nm.

[6] = system: 5-dpf zebrafish larvae; experiment: Zebrafish larvae light/dark transition challenge: locomotor activity and thigmotaxis (anxiolytic activity assay, Phase 2); type: in vivo, Danio rerio; details: for distance moved by the larvae in the central arena / time spent in the central area: dark phase vs light phase, concentration not stated; for anxiolytic activity (authors' overall statement): zebrafish larvae model
Protocol: as §1, §2

[7] = system: mice; details: 5 mg/kg; cited from earlier work
[8] = parameters: method as in PMID 23803166; details: cited from earlier work
[9] = system: murine model; parameters: method as in PMID 33049351; details: cited from earlier work
[10] = system: zebrafish; parameters: method as in PMID 33049351; details: zebrafish model; cited from earlier work
[11] = 40 min continuous illumination vs DMSO-treated group, 12.5 µM
[12] = dark phase vs DMSO-treated group in dark phase, 12.5 μM
[13] = dark phase vs DMSO-treated group in dark phase, 25 μM
[14] = dark phase vs DMSO-treated group in dark phase, 50 μM
[15] = dark phase vs light phase within same group, 12.5 μM
[16] = dark phase vs light phase within same group, 25 μM
[17] = light phase vs DMSO-treated group in light phase, 12.5 μM
[18] = light phase vs DMSO-treated group in light phase, 50 μM
[19] = dark phase vs DMSO-treated group in dark phase, 9 μM
[20] = dark phase vs light phase within same group, 9 μM
[21] = dark phase vs light phase within same group, 15 μM
[22] = dark phase vs light phase within same group, 30 μM

Structure (SMILES): COc1c2ccoc2cc2oc(=O)ccc12 [bergapten]
influence on GABAA receptor [1]: weaker influence

Structure (SMILES): COc1c2ccoc2c(OC[C@H]2OC2(C)C)c2oc(=O)ccc12 [byakangelicol]
mode of action at GABA/BDZ receptor [2]: partial agonists

Structure (SMILES): COc1cc2cc(Oc3ccc4ccc(=O)oc4c3)c(=O)oc2cc1O [daphnoretin]
anxiolytic activity ([3]; rodent model of anxiety, tested on EPM): significant anxiolytic activity

Structure (SMILES): CC(C)=CCOc1c2occc2cc2ccc(=O)oc12 [imperatorin]
influence on GABAA receptor [1]: weaker influence
anxiolytic activity (percentage of time and number of arms entries in the open arm) [3]: significant anxiolytic activity

Structure (SMILES): CC(C)=CCOc1c2ccoc2cc2oc(=O)ccc12 [isoimperatorin]
anxiolytic activity (percentage of time and number of arms entries in the open arm) [3]: significant anxiolytic activity

Partition Coefficients (Pi) ([5]; solvent system II, hexane/ethyl acetate/methanol/water 6/5/6/5 (v/v/v/v)): 1.01
Structure (SMILES): C/C=C(/C)C(=O)O[C@H]1[C@@H](O)c2c(ccc3ccc(=O)oc23)OC1(C)C [isolaserpitin]
percentage of distance moved in the central arena [4, 11]: increased
percentage of time spent in the central arena [4, 11]: increase
percentage of distance moved in the central arena ([4]; 40 min continuous illumination vs DMSO-treated group, 50 µM): increased
spontaneous locomotor activity (average distance moved) ([4]; all concentrations (12.5, 25, 50 µM)): has not influenced
locomotor activity (average distance moved per 1-min time bin) [6, 12]: significant increases
percentage of distance moved in central area [6, 12]: significant increases
percentage of time spent in central area [6, 12]: significant increases
locomotor activity (average distance moved per 1-min time bin) [6, 13]: significant increases
percentage of distance moved in central area [6, 13]: significant increases
percentage of time spent in central area [6, 13]: significant increases
locomotor activity (average distance moved per 1-min time bin) [6, 14]: significant increases
percentage of distance moved in central area [6, 14]: significant increases
percentage of time spent in central area [6, 14]: significant increases
percentage of distance moved in central area [6, 15]: increase
percentage of time spent in central area [6, 15]: increase
percentage of distance moved in central area [6, 16]: increase
percentage of time spent in central area [6, 16]: increase
percentage of distance moved in central area ([6]; dark phase vs light phase within same group, 50 μM): increase
distance moved by the larvae in the central arena [6]: significantly increased
time spent in the central area [6]: significantly increased
locomotor activity (average distance moved per 1-min time bin) [6, 17]: significant increase
percentage of distance moved in central area [6, 17]: significant increase
percentage of time spent in central area [6, 17]: significant increase
locomotor activity (average distance moved per 1-min time bin) ([6]; light phase vs DMSO-treated group in light phase, 25 μM): significant increase
locomotor activity (average distance moved per 1-min time bin) [6, 18]: significant increase
percentage of distance moved in central area [6, 18]: significant increase
percentage of time spent in central area [6, 18]: significant increase
anxiolytic activity (authors' overall statement) [6]: higher

Partition Coefficients (Pi) ([5]; solvent system III, hexane/ethyl acetate/methanol/water 5/2/5/2 (v/v/v/v)): 2.01
Structure (SMILES): CCCCCCCC(=O)O[C@H]1Cc2c(ccc3ccc(=O)oc23)OC1(C)C [octanoyllomatin]
spontaneous locomotor activity (average distance moved) ([4]; all concentrations (9, 15, 30 µM)): has not influenced
percentage of distance moved in central area [6, 19]: significant increases
percentage of time spent in central area [6, 19]: significant increases
percentage of time spent in central area ([6]; dark phase vs DMSO-treated group in dark phase, 15 μM): significant increases
locomotor activity (average distance moved per 1-min time bin) ([6]; dark phase vs DMSO-treated group in dark phase, 30 μM): significant decreases
locomotor activity (average distance moved per 1-min time bin) [6, 20]: increase
percentage of distance moved in central area [6, 20]: increase
percentage of time spent in central area [6, 20]: increase
locomotor activity (average distance moved per 1-min time bin) [6, 21]: increase
percentage of distance moved in central area [6, 21]: increase
percentage of time spent in central area [6, 21]: increase
percentage of distance moved in central area [6, 22]: increase
percentage of time spent in central area [6, 22]: increase
distance moved by the larvae in the central arena [6]: significantly increased
time spent in the central area [6]: significantly increased
percentage of time spent in central area ([6]; light phase vs DMSO-treated group in light phase, 30 μM): decrease
anxiolytic activity (authors' overall statement) [6]: highest anxiolytic activity

Structure (SMILES): CC(C)=CCCC(C)=CCc1cc2ccc(=O)oc2cc1O [ostruthin, 6-(3,7-dimethyl-2,6-octadienyl)-7-hydroxycoumarin]
anxiolytic effect [7]: anxiolytic effect

Structure (SMILES): COc1c2ccoc2c(OCC=C(C)C)c2oc(=O)ccc12 [phellopterin]
IC50 [1]: 360 nM
mode of action at GABA/BDZ receptor [2]: partial agonists

Structure (SMILES): O=c1ccc2cc3ccoc3cc2o1 [psolaren]
mode of action at GABA/BDZ receptor [2]: partial agonists

Structure (SMILES): COc1cc2ccc(=O)oc2cc1O [scopoletin, 7-hydroxy-6-methoxycoumarin]
anxiolytic effects [8]: significant sustained anxiolytic effects

Structure (SMILES): O=c1ccc2ccc(O)cc2o1 [umbelliferone, 7-hydroxycoumarin]
anxiolytic effects [8]: significant sustained anxiolytic effects

Structure (SMILES): COc1c2occc2cc2ccc(=O)oc12 [xanthotoxin]
effect on anxiety behaviors (thigmotaxis) [9]: reversed U-shape effect
effect on anxiety behaviors (thigmotaxis) [10]: reversed U-shape effect
